Results from patent US7476650B2, “Enzyme inhibition” (Yale University, priority 1999, dated 2009).
Where two headings read alike, the source gives them in different places. Where a SMILES comes first, the peptide text is derived from it. The star is where a group is joined. X1 = CC(C)C[C@H](N*)C(=O)[C@@]1(C)CO1

Experiments:
Assay type in all cases: biochemical
[1] = molecular target: T1, PGPH activity of purified bovine erythrocyte 20S proteasome (Bos taurus, UniProt Q3MHN0); assay: Enzyme kinetic assay, PGPH activity (Z-LLE-AMC); details: for kinact/KI: pH 8, inhibitor concentration range in parentheses; for kobs/[I] PGPH: Table 3; for selectivity for the PGPH activity: in words, data not shown for Glu compounds
T1 construct: from tissue; host or cells: bovine erythrocytes (red blood cells)
Procedure: We investigated the potency of inhibitors of various length. Mono-, di-,tri- and tetraleucine α′,β′-epoxides were ranked by determination of the kobs/[I] values for inhibition of the chymotrypsin-like, trypsin-like, and PGPH activities of purified bovine erythrocyte 20S proteasome. Enzyme kinetic assays were performed as described in Example 2.
(§1) Purified bovine erythrocyte proteasome was enzymatically assayed using a variety of different substrates and inhibitors. In order to evaluate the rates of proteolytic inactivation by inhibitors, kassociation (kobs/[I]) values were determined using fluorogenic peptide substrates over a range of inhibitor concentrations.

[2] = molecular target: T2, chymotrypsin-like activity of purified bovine erythrocyte 20S proteasome (Bos taurus, UniProt Q32KL2); assay: Enzyme kinetic assay, chymotrypsin-like activity (Suc-LLVY-AMC); details: for kinact/KI: pH 8, inhibitor concentration range in parentheses; for kobs/[I] Chymotrypsin-like: Table 3
T2 construct: from tissue; host or cells: bovine erythrocytes (red blood cells)
Excerpt: (§2) We investigated the potency of inhibitors of various length. Mono-, di-,tri- and tetraleucine α′,β′-epoxides were ranked by determination of the kobs/[I] values for inhibition of the chymotrypsin-like, trypsin-like, and PGPH activities of purified bovine erythrocyte 20S proteasome.
as §1

[3] = molecular target: T3, trypsin-like activity of purified bovine erythrocyte 20S proteasome (Bos taurus, UniProt Q2TBP0); assay: Enzyme kinetic assay, trypsin-like activity (Boc-LRR-AMC); details: for kobs/[I] Trypsin-like: Table 3
T3 construct: from tissue; host or cells: bovine erythrocytes (red blood cells)
Excerpt: as §2, §1

[4] = Table 1, read-out: kobs/[I] PGPH activity
[5] = Table 1, read-out: kobs/[I] Chymotrypsin-like activity

Row | Compound | kobs/[I] PGPH [1] | kobs/[I] Chymotrypsin-like [2] | selectivity for the PGPH activity [1] | also measured
1 | CC(=O)N[C@@H](CC(C)C)C(=O)N[C@@H](CC(C)C)C(=O)N[C@@H](CC(C)C)C(=O)N[C@@H](CC(C)C)C(=O)[C@@]1(C)CO1 | – | – | – | kinact/KI [1, 4]: 9.2 M⁻¹ s⁻¹; kinact/KI [2, 5]: 14000 M⁻¹ s⁻¹; kobs/[I] for tryptic-like activity using Boc-LRR-AMC ([3]; Examples 9 and 10): not measurable
2 | CC(=O)N[C@@H](CC(C)C)C(=O)N[C@@H](CC(C)C)C(=O)N[C@@H](CC(C)C)C(=O)[C@@]1(C)CO1 | – | – | – | kinact/KI [1, 4]: 120 M⁻¹ s⁻¹; kinact/KI [2, 5]: 780 M⁻¹ s⁻¹; kinact/KI ([3]; pH 8, Table 1, inhibitor concentration range in parentheses, read-out: kobs/[I] trypsin-like activity): 5.1 M⁻¹ s⁻¹
3 | CC(=O)N[C@@H](CC(C)C)C(=O)N[C@@H](CC(C)C)C(=O)[C@@]1(C)CO1 | – | – | – | kinact/KI [2, 5]: 3.1 M⁻¹ s⁻¹
4 | CC(=O)N[C@@H](C)C(=O)N[C@H](C(=O)N[C@@H](CC(C)C)C(=O)[C@@]1(C)CO1)C(C)C [Ac-AVL-Ex] | 12.7 ± 1.3 M⁻¹ s⁻¹ | 10.8 ± 0.2 M⁻¹ s⁻¹ | – | kobs/[I] Trypsin-like [3]: 1.8 ± 0.1 M⁻¹ s⁻¹
5 | CC(=O)N[C@@H](C)C(=O)N[C@H](C(=O)N[C@@H](CCC(=O)O)C(=O)[C@@]1(C)CO1)C(C)C [Ac-Ala-Val-Glu-α′,β′-epoxyketone] | – | – | did not display any significant selectivity | –
6 | CC(=O)NCC(=O)NCC(=O)N1CCC[C@H]1C(=O)N[C@@H](Cc1ccccc1)C(=O)N[C@@H](CC(C)C)C(=O)[C@@]1(C)CO1 [Ac-GGPFL-Ex] (Ac-GGPF-X1) | 170 ± 30 M⁻¹ s⁻¹ | 170 ± 60 M⁻¹ s⁻¹ | – | kobs/[I] Trypsin-like [3]: 1.3 ± 0.3 M⁻¹ s⁻¹
7 | CC(=O)NCC(=O)N1CCC[C@H]1C(=O)N[C@@H](Cc1ccccc1)C(=O)N[C@@H](CCC(=O)O)C(=O)[C@@]1(C)CO1 [Ac-Gly-Pro-Phe-Glu-α′,β′-epoxyketone] | – | – | did not display any significant selectivity | –
8 | CC[C@H](C)[C@H](NC(C)=O)C(=O)N[C@H](C(=O)N[C@H](C(=O)N[C@@H](CCC(=O)O)C(=O)[C@@]1(C)CO1)[C@@H](C)O)[C@@H](C)CC [Ac-Ile-Ile-Thr-Glu-α′,β′-epoxyketone] | – | – | did not display any significant selectivity | –
9 | CC[C@H](C)[C@H](NC(C)=O)C(=O)N[C@H](C(=O)N[C@@H](CCC(=O)O)C(=O)[C@@]1(C)CO1)C(C)C [Ac-Ile-Val-Glu-α′,β′-epoxyketone] | – | – | did not display any significant selectivity | –
10 | CC(=O)N1CCC[C@H]1C(=O)N[C@@H](Cc1ccccc1)C(=O)N[C@@H](CC(C)C)C(=O)[C@@]1(C)CO1 [Ac-PFL-Ex] | 32 ± 6 M⁻¹ s⁻¹ | 42 ± 2 M⁻¹ s⁻¹ | – | –
11 | CC(=O)N1CCC[C@H]1C(=O)N1CCC[C@H]1C(=O)N[C@@H](Cc1ccccc1)C(=O)N[C@@H](CC(C)C)C(=O)[C@@]1(C)CO1 [Ac-PPFL-Ex] | 10.6 ± 0.3 M⁻¹ s⁻¹ | 6.4 ± 3.3 M⁻¹ s⁻¹ | – | –
12 | CC(=O)N1CCC[C@H]1C(=O)N[C@@H](Cc1ccccc1)C(=O)N[C@@H](CCC(=O)O)C(=O)[C@@]1(C)CO1 [Ac-Pro-Phe-Glu-α′,β′-epoxyketone] | – | – | did not display any significant selectivity | –
13 | CC(=O)N1CCC(C(=O)N2CCC[C@H]2C(=O)N[C@@H](Cc2ccccc2)C(=O)N[C@@H](CC(C)C)C(=O)[C@@]2(C)CO2)CC1 [N-acetyl-piperidinecarbonyl-PFL-Ex] | 45.3 ± 2.2 M⁻¹ s⁻¹ | 31.2 ± 0.6 M⁻¹ s⁻¹ | – | –
14 | CC(C)C[C@H](NC(=O)[C@H](Cc1ccccc1)NC(=O)c1cnccn1)B(O)O [reference compound] | – | – | – | kinact/KI ([1]; Table 4, read-out: kassoc = kobs/[I] PGPH activity): 3200 M⁻¹ s⁻¹; kinact/KI ([2]; Table 4, read-out: kassoc = kobs/[I] Chymotrypsin-like activity): 53000 M⁻¹ s⁻¹
15 | isooctanoyl-Ser-Glu-α′,β′-epoxyketone | – | – | poor PGPH-selective inhibitors | –
16 | isooctanoyl-Thr-Glu-α′,β′-epoxyketone | – | – | poor PGPH-selective inhibitors | –
